Values quoted from earlier work, collected in US12285483B2 (priority 2020, dated 2025).

Conditions: pure solanesol, room temperature

## solanesol
  solubility in water: insoluble in water
